From the supplement of paper PMC10627819

Columns and labels:
[1] = test system: B. subtilis 168; experiment: fitness (endpoint OD595 vs no drug) (fraction); higher = more growth
Outline: (§1)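 Cultures at OD595 0.01 were dispensed into 384-well plates in TSB, LB Lennox or CY and incubated at 37 °C. Every 30 min for 14 h, OD595 was read and corrected by the first reading. Fitness is the optical density at entry into stationary phase relative to the robust mean of no-drug control wells, capped at 1.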

[2] = test system: S. pneumoniae D39V; experiment: as above
Outline: as §1

[3] = test system: B. subtilis 168; experiment: Bliss interaction score (quartile over a dose matrix) (fitness difference); higher = more antagonism (negative = synergy)
Outline: (§2)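 Quartiles of the Bliss score were taken over technical, biological and donor/recipient replicates. That score is observed fitness minus the product of the single-drug fitness values, which were inferred from combination data. Fitness itself is OD595 at entry into stationary phase divided by the plate's robust no-drug mean, with a cap at 1.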

[4] = test system: S. aureus DSM 20231; experiment: as above
Outline: as §2

[5] = test system: S. aureus Newman; experiment: as above
Outline: as §2

[6] = test system: S. pneumoniae D39V; experiment: as above
Outline: as §2
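For Bliss interaction score (quartile over a dose matrix) in this document: first quartile when negative (synergy) and third quartile when positive (antagonism).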

O=C(O)c1cn(C2CC2)c2cc(N3CCNCC3)c(F)cc2c1=O [Ciprofloxacin] + C[C@H]1COc2c(N3CCN(C)CC3)c(F)cc3c(=O)c(C(=O)O)cn1c23 [Levofloxacin]
one replicate
Settings | fitness
[1], first compound 0.0098 µg/mL, partner 0.001 µg/mL | 0.863
[1], first compound 0.0098 µg/mL, partner 0.0078 µg/mL | 0.934
[1], first compound 0.0195 µg/mL, partner 0.001 µg/mL | 0.829
[1], first compound 0.0195 µg/mL, partner 0.0078 µg/mL | 0.683
[1], first compound 0.039 µg/mL, partner 0.001 µg/mL | 0.291
[1], first compound 0.039 µg/mL, partner 0.0078 µg/mL | 0.0887
[2], first compound 0.25 µg/mL, partner 0.2 µg/mL | 0.752
[2], first compound 0.25 µg/mL, partner 0.4 µg/mL | 0.559
[2], first compound 0.25 µg/mL, partner 0.8 µg/mL | 0.124

Settings | fitness
[1], first compound 0.0098 µg/mL, partner 0.002 µg/mL | 0.855
[1], first compound 0.0098 µg/mL, partner 0.0039 µg/mL | 0.873
[1], first compound 0.0098 µg/mL, partner 0.0312 µg/mL | 0.0377
[1], first compound 0.0098 µg/mL, partner 0.0625 µg/mL | 0.0424
[1], first compound 0.0098 µg/mL, partner 0.125 µg/mL | 0.0385
[1], first compound 0.0195 µg/mL, partner 0.002 µg/mL | 0.727
[1], first compound 0.0195 µg/mL, partner 0.0039 µg/mL | 0.722
[1], first compound 0.0195 µg/mL, partner 0.0312 µg/mL | 0.0376
[1], first compound 0.0195 µg/mL, partner 0.0625 µg/mL | 0.0489
[1], first compound 0.0195 µg/mL, partner 0.125 µg/mL | 0.0429
[1], first compound 0.039 µg/mL, partner 0.002 µg/mL | 0.123
[1], first compound 0.039 µg/mL, partner 0.0039 µg/mL | 0.145
[1], first compound 0.039 µg/mL, partner 0.0312 µg/mL | 0.0451
[1], first compound 0.039 µg/mL, partner 0.0625 µg/mL | 0.0495
[1], first compound 0.039 µg/mL, partner 0.125 µg/mL | 0.0401
[2], first compound 0.125 µg/mL, partner 0.1725 µg/mL | 0.884
[2], first compound 0.125 µg/mL, partner 0.2 µg/mL | 0.883
[2], first compound 0.125 µg/mL, partner 0.345 µg/mL | 0.794
[2], first compound 0.125 µg/mL, partner 0.4 µg/mL | 0.735
[2], first compound 0.125 µg/mL, partner 0.69 µg/mL | 0.498
[2], first compound 0.125 µg/mL, partner 0.8 µg/mL | 0.201
[2], first compound 0.25 µg/mL, partner 0.1725 µg/mL | 0.83
[2], first compound 0.25 µg/mL, partner 0.345 µg/mL | 0.723
[2], first compound 0.25 µg/mL, partner 0.69 µg/mL | 0.445
[2], first compound 0.5 µg/mL, partner 0.1725 µg/mL | 0.592
[2], first compound 0.5 µg/mL, partner 0.345 µg/mL | 0.462
[2], first compound 0.5 µg/mL, partner 0.69 µg/mL | 0.282
[2], first compound 0.5 µg/mL, partner 0.8 µg/mL | 0.145

Settings | Bliss interaction score
[3] | -0.0411
[4] | -0.147
[5] | -0.194
[6] | -0.166

C[C@H]1c2cccc(O)c2C(=O)C2=C(O)[C@]3(O)C(=O)C(C(N)=O)=C(O)[C@@H](N(C)C)[C@@H]3[C@@H](O)[C@@H]21 [Doxycycline] + COc1ccc(C[C@H](N)C(=O)N[C@H]2[C@@H](O)[C@H](n3cnc4c(N(C)C)ncnc43)O[C@@H]2CO)cc1 [Puromycin]
Settings | fitness
[1], first compound 0.02 µg/mL, partner 0.39 µg/mL | 0.861
[1], first compound 0.02 µg/mL, partner 0.78 µg/mL | 0.858
[1], first compound 0.02 µg/mL, partner 1.56 µg/mL | 0.877
[1], first compound 0.04 µg/mL, partner 0.39 µg/mL | 0.748
[1], first compound 0.04 µg/mL, partner 0.78 µg/mL | 0.751
[1], first compound 0.04 µg/mL, partner 1.56 µg/mL | 0.761
[1], first compound 0.08 µg/mL, partner 0.39 µg/mL | 0.405
[2], first compound 0.0155 µg/mL, partner 1 µg/mL | ≥ 1
[2], first compound 0.0155 µg/mL, partner 2 µg/mL | 0.97
[2], first compound 0.0155 µg/mL, partner 4 µg/mL | 0.834
[2], first compound 0.031 µg/mL, partner 1 µg/mL | 0.857
[2], first compound 0.031 µg/mL, partner 2 µg/mL | 0.836
[2], first compound 0.031 µg/mL, partner 4 µg/mL | 0.73
[2], first compound 0.062 µg/mL, partner 1 µg/mL | 0.847
[2], first compound 0.062 µg/mL, partner 2 µg/mL | 0.786
[2], first compound 0.062 µg/mL, partner 4 µg/mL | 0.637

fitness, [2], one replicate
Settings | partner 1 µg/mL | partner 2 µg/mL | partner 4 µg/mL
first compound 0.003875 µg/mL | ≥ 1 | 0.98 | 0.847
first compound 0.00775 µg/mL | ≥ 1 | 0.976 | 0.86

Settings | Bliss interaction score
[3] | -0.0496
[4] | -0.0866
[5] | -0.0507
[6] | 0.0767

C[C@@H]1O[C@@H]1P(=O)(O)O [Fosfomycin] + CN(C)C(=O)C(CCN1CCC(O)(c2ccc(Cl)cc2)CC1)(c1ccccc1)c1ccccc1 [Loperamide]
fitness
Settings | first compound 1.25 µg/mL | first compound 1.562 µg/mL | first compound 2.5 µg/mL | first compound 3.124 µg/mL | first compound 5 µg/mL | first compound 6.248 µg/mL
[1], partner 25 µg/mL | – | 0.743 | – | 0.625 | – | 0.534
[1], partner 100 µg/mL | – | 0.0187 | – | 0.0366 | – | 0.011
[2], partner 17.14 µg/mL | 0.957 | – | 0.952 | – | 0.722 | –
[2], partner 20 µg/mL | ≥ 1 | – | 0.985 | – | 0.81 | –
[2], partner 34.28 µg/mL | 0.954 | – | 0.961 | – | 0.74 | –
[2], partner 40 µg/mL | ≥ 1 | – | ≥ 1 | – | 0.77 | –

[2], partner 68.57 µg/mL, one replicate
Settings | fitness
first compound 1.25 µg/mL | 0.969
first compound 2.5 µg/mL | 0.515
first compound 5 µg/mL | 0.861

Settings | Bliss interaction score
[3] | 0.305
[4] | 0.116
[5] | -0.0773
[6] | 0.0632

CO/N=C(\C(=O)N[C@@H]1C(=O)N2C(C(=O)O)=C(COC(C)=O)CS[C@H]12)c1csc(N)n1 [Cefotaxime] + CO[C@@H]1[C@@H](OC(N)=O)[C@@H](O)[C@H](Oc2ccc3c(O)c(NC(=O)c4ccc(O)c(CC=C(C)C)c4)c(=O)oc3c2C)OC1(C)C [Novobiocin]
fitness, [1], one replicate
Settings | first compound 0.00775 µg/mL | first compound 0.0155 µg/mL | first compound 0.031 µg/mL | first compound 0.0625 µg/mL | first compound 0.125 µg/mL | first compound 0.25 µg/mL
partner 0.05 µg/mL | 0.908 | 0.735 | 0.565 | – | – | –
partner 0.1 µg/mL | 0.955 | 0.715 | 0.563 | – | – | –
partner 0.125 µg/mL | – | – | – | 0.291 | 0.169 | 0.117
partner 0.2 µg/mL | 0.945 | 0.676 | 0.51 | – | – | –
partner 0.25 µg/mL | – | – | – | 0.112 | 0.0673 | 0.0477
partner 0.5 µg/mL | – | – | – | 0.0592 | 0.0517 | 0.0477

fitness, [1]
Settings | first compound 0.5 µg/mL | first compound 1 µg/mL | first compound 2 µg/mL
partner 0.0125 µg/mL | 0.27 | 0.122 | 0.127
partner 0.025 µg/mL | 0.275 | 0.135 | 0.131
partner 0.05 µg/mL | 0.276 | 0.153 | 0.142

Settings | Bliss interaction score
[3] | 0.097
[4] | 0.0739
[5] | 0.0646
[6] | -0.126

C[C@@H]1O[C@@H]1P(=O)(O)O [Fosfomycin] + CO[C@@H]1[C@@H](OC(N)=O)[C@@H](O)[C@H](Oc2ccc3c(O)c(NC(=O)c4ccc(O)c(CC=C(C)C)c4)c(=O)oc3c2C)OC1(C)C [Novobiocin]
fitness, [1]
Settings | first compound 1.562 µg/mL | first compound 3.124 µg/mL | first compound 6.248 µg/mL
partner 0.0125 µg/mL | 0.712 | 0.609 | 0.44
partner 0.025 µg/mL | 0.658 | 0.586 | 0.408
partner 0.05 µg/mL | 0.792 | 0.69 | 0.47

fitness, [1], one replicate
Settings | partner 0.1 µg/mL | partner 0.125 µg/mL | partner 0.2 µg/mL | partner 0.25 µg/mL | partner 0.5 µg/mL
first compound 1.562 µg/mL | 0.746 | 0.785 | 0.793 | 0.7 | 0.12
first compound 3.124 µg/mL | 0.698 | 0.782 | 0.691 | 0.637 | 0.0455
first compound 6.248 µg/mL | 0.531 | 0.551 | 0.507 | 0.36 | 0.0252

Settings | Bliss interaction score
[3] | -0.0536
[4] | 0.1
[5] | 0.0635
[6] | -0.102
